Assay results taken from patent US6759435B1, “Antidepressant drugs and methods” (A.P. Group Inc., priority 2003, dated 2004).

Columns and labels:
[1] = test system: immobility of Swiss-Webster CD male mice; assay: Reduction of behavioral despair in vivo (modified Porsolt method); conditions: mouse, subcutaneous, tested one hour after injection, linear regression analysis of % MPE data
Protocol: Reduction of Behavioral Despair In Vivo (Modified Porsolt Method) by (1-{2-[1-(3,4-Dichloro-phenyl)-ethyl]-phenyl}-ethyl)-methyl-amine hydrochloride.
A modification of the procedure described by Porsolt et al., Arch. Int. Pharmnacodyn., 229, pp. 327-336 (1977) was used. A number of Swiss-Webster CD male mice weighing 25-30 g. were housed under standard laboratory conditions for at least one week prior to experimentation. Groups of 10 mice were then injected subcutaneously with either a given dosage of the named test compound or vehicle (5% Emulphor: 5% ethanol: 90% normal saline). One hour later the mice were placed individually in 1 liter beakers containing 7 cm of 25° C. water. […] A total of ten observations were made, each being scored as “0=animal moving, swimming, attempting to escape” or “1=animal immobile”. The number of positive observations for each mouse was then totaled and a mean immobility score calculated for the group of ten. […] From the % MPE data a % MPE50 value, i.e. the dosage producing a 50% reduction in immobility relative to control, was determined by linear regression analysis to be 5.2 mg/kg body weight for the named test compound. Similarly, the % MPE50 values were determined for other compounds in examples 1-17 and were <8.0 mg/kg.

[2] = test system: PCA-induced serotonin depletion (5HT uptake into 5HT neurons), rat whole brain; assay: Antagonism of parachloroamphetamine (PCA)-induced depletion of serotonin levels from rat brain in vivo; parameters: species or system Sprague-Dawley CD male rats; conditions: subcutaneous, together with 6.6 mg/kg PCA, whole brain serotonin four hours later
From the text: Ability of (1-{2-[1-(3,4-Dichloro-phenyl)-ethyl]-phenyl}-ethyl)-methyl-amine Hydrochloride to Antagonize Parachloroamphetamine (PCA)-induced Depletion of Serotonin Levels from Rat Brain In Vivo
Serotonin uptake blockers show a dose-dependent antagonism of the serotonin-depleting action of PCA, a drug which requires 5HT uptake into 5HT neurons to exert its effect. Sprague-Dawley CD male rats (180-230 g.) in groups of five received two simultaneous subcutaneous injections: either the named test compound (at different dosage levels)+6.6 mg/kg body weight PCA, water+6.6 mg/kg body weight PCA, or water+water (controls). The rats were decapitated four hours later and their whole brain assayed for serotonin content by the Bogdanski method. Homogenates of brain in 0.1N HCl were made alkaline with borate buffer and extracted with butanol. The solvent phase was then extracted with 0.1N HCl. The aqueous extracts were acidified with concentrated HCl and the intrinsic fluorescence of serotonin measured in a spectrophotofluorometer. The ED50, i.e., the dose giving a 50% reversal of the PCA-induced serotonin depletion, was estimated to be 0.1 mg/kg body weight. Similarly, the ED50 for other compounds in Examples 1-17 were determined and were <0.3 mg/kg.

Compound: CNC(C)c1ccccc1C(C)c1ccc(Cl)c(Cl)c1.Cl (centres unmarked) [(1-{2-[1-(3,4-Dichloro-phenyl)-ethyl]-phenyl}-ethyl)-methyl-amine Hydrochloride]
- % MPE50, the dosage producing a 50% reduction in immobility relative to control [1]: 5.2 mg/kg body weight
- ED50, the dose giving a 50% reversal of the PCA-induced serotonin depletion [2]: 0.1 mg/kg body weight
